Experimental data as given in patent publication US8618086B2, “Compositions and methods for treating hair loss using C16-C20 aromatic tetrahydro prostaglandins” (Duke University, priority 2000, dated 2013).

Key:
[1] = system: C3H mice (conversion from telogen to anagen, skin color grade); assay: Telogen Conversion Assay; type: in vivo; details: topical; for Average Grades, 23 Days: visual skin color grade 0 (whitish) to 4 (dark blue, full anagen), average of 7 mice after 23 days
Protocol: PGF's are tested for their potential to grow hair using the Telogen Conversion Assay. The Telogen Conversion Assay measures the potential of a PGF to convert mice in the resting stage of the hair growth cycle (“telogen”), to the growth stage of the hair growth cycle (“anagen”).
Without intending to be limited by theory, there are three principal phases of the hair growth cycle: anagen, catagen, and telogen. It is believed that there is a longer telogen period in C3H mice (Harlan Sprague Dawley, Inc., Indianapolis, Ind.) from approximately 40 days of age until about 75 days of age, when hair growth is synchronized. It is believed that after 75 days of age, hair growth is no longer synchronized. Wherein about 40 day-old mice with dark fur (brown or black) are used in hair growth experiments, melanogenesis occurs along with hair (fur) growth wherein the topical application of hair growth inducers are evaluated. The Telogen Conversion Assay herein is used to screen PGF's for potential hair growth by measuring melanogenesis.
Three groups of 44 day-old C3H mice are used: a vehicle control group, a positive control group, and a test PGF group, wherein the test PGF group is administered a PGF used in the method of this invention. The length of the assay is 24 days with 15 treatment days (wherein the treatment days occur Mondays through Fridays). Day 1 is the first day of treatment. Typical dosage concentrations are set forth in Table 1, however the skilled artisan will readily understand that such concentrations may be modified.
The mice are treated topically Monday through Friday on their lower back (base of tail to the lower rib). A pipettor and tip are used to deliver 400 μL to each mouse's back. The 400 μL application is applied slowly while moving hair on the mouse to allow the application to reach the skin.
While each treatment is being applied to the mouse topically, a visual grade of from 0 to 4 will be given to the skin color in the application area of each animal. As a mouse converts from telogen to anagen, its skin color will become more bluish-black.

[2] = target: T1, hFP receptor (hFP membrane from transfected COS-7 cells) (Homo sapiens, UniProt P43088); assay: Radioligand Binding Assay; details: competition with (3H) PGF2 on hFP membrane; read-out: IC50 the PGF
T1 construct: expressed in transfected cells; host or cells: COS-7 cells (transient transfection, LipofectAMINE); membrane preparation
Protocol: IC50 of a PGF can be determined relative to PGF2α using the Radioligand Binding Assay. As a control, the IC50 for PGF2α itself should be no lower than 1.0 nM and no higher than 5.0 nM.
In this assay, COS-7 cells are transiently transfected with the hFP recombinant plasmid using LipofectAMINE Reagent. Forty-eight hours later, the transfected cells are washed with Hank's Balanced Salt Solution (HBSS, without CaCl2, MgCl2, MgSO4, or phenol red). The cells are detached with versene, and HBSS is added. The mixture is centrifuged at 200 g for 10 minutes, at 4° C. to pellet the cells. The pellet is resuspended in Phosphate-Buffered Saline-EDTA buffer (PBS; 1 mM EDTA; pH 7.4; 4° C.). The cells are disrupted by nitrogen cavitation (Parr model 4639), at 800 psi, for 15 minutes at 4° C. The mixture is centrifuged at 1000 g for 10 minutes at 4° C. The supernatant is centrifuged at 100,000 g for 60 minutes at 4° C. The pellet is resuspended to 1 mg protein/mL TME buffer (50 mM Tris; 10 mM MgCl2; 1 mM EDTA; pH 6.0; 4° C.) based on protein levels measured using the Pierce BCA Protein Assay kit. The homogenate is mixed for 10 seconds using a Kinematica POLYTRON® (available from KINEMATICA AG, Luzernerstrasse 147A CH-6014 Littau, Switzerland). The membrane preparations are then stored at −80° C., until thawed for assay use.
The receptor competition binding assays are developed in a 96 well format. Each well contains […] of hFP membrane, 5 nM (3H) PGF2, and the various competing compounds in a total volume of […]. The plates are incubated at 23° C. for 1 hour. The incubation is terminated by rapid filtration using the Packard Filtermate 196 harvester through Packard UNIFILTER® GF/B filters (available from Packard Instrument Co., Inc. of Downers Grove Ill.) pre-wetted with TME buffer. The filter is washed four times with TME buffer. […] The plates are read on a Packard TOPCOUNT® Microplate Scintillation Counter (also available from Packard Instrument Co., Inc.)

T1 sequence (P43088 whole entry): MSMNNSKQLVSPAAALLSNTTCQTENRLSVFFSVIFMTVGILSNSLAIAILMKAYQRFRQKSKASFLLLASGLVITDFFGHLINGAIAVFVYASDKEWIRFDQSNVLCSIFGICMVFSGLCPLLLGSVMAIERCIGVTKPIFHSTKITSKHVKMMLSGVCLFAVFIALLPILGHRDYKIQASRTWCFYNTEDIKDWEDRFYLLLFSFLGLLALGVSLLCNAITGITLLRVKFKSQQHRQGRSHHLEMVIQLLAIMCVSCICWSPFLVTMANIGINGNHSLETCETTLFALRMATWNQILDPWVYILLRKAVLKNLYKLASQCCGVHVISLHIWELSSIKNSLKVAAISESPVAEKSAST

| SMILES | hair growth (result in words) [1] | Average Grades, 23 Days [1] | Average Grades, 25 Days ([1]; visual skin color grade 0 to 4, average of 7 mice after 25 days) | Average Grades, 26 Days ([1]; visual skin color grade 0 to 4, average of 7 mice after 26 days) | IC50 [2] [nM] |
| --- | --- | --- | --- | --- | --- |
| CC(C)OC(=O)CCCCCC[C@@H]1[C@@H](CCC(O)CSc2ccccc2)[C@H](O)C[C@@H]1O (stereo partly drawn) [Example 1] | grew hair | 0.4 | 0.1 | 0.7 |  |
| COC(=O)CCCCCC[C@@H]1[C@@H](CCC(O)CSc2ccccc2Br)[C@H](O)C[C@@H]1O (stereo partly drawn) [Example 2] | grew hair | 0.1 |  |  |  |
| O=C(O)CCCCCC[C@@H]1[C@@H](CCC(O)CSc2cccc(F)c2)[C@H](O)C[C@@H]1O (stereo partly drawn) [Example 3-1] |  |  |  |  | 7 |
| O=C(O)CCCCCC[C@@H]1[C@@H](CCC(O)CSc2ccccc2F)[C@H](O)C[C@@H]1O (stereo partly drawn) [Example 3-2] |  |  |  |  | 10 |
| CC(O)(CC[C@@H]1[C@@H](CCCCCCC(=O)O)[C@@H](O)C[C@H]1O)CSc1ccccc1 (stereo partly drawn) [Example 3-3] |  |  |  |  | 24 |
